The values below come from patent US11912679B2, “Aryl alkynamide derivatives” (Astellas Pharma, Inc., priority 2022, dated 2024).

Structures are written as SMILES.

The experiment concerns IRF pathway of THP-1. The experiment in a line: Test on the activity of IRF pathway of THP-1 (THP1-Dual reporter cells stimulated with 2'3'-cGAMP). Particulars: Homo sapiens, PMA-treated, 2'3'-cGAMP 5 ug/mL, QUANTI-Luc readout, read-out: IC50 of inhibition of the activity of IRF pathway. It counts as cell-based. As to the method:
0.3 uM of PMA (phorbol myristate acetate, SIGMA, P1585) was added to THP1-Dual™ cells (NF-κB-SEAP IRF-Luc Reporter Monocytes, Invivogen, thpd-nfis), and the cells were cultured at 37° C. for 1 day in RPMI1640 with 10% Fetal Bovine Serum (FBS). A compound with a known concentration was added, and the cells were incubated at room temperature for 1 hour. Mammalian (non-canonical) CDN, cyclic [G(2′,5′)pA(3′,5′)p] (2′3′-cGAMP, Invivogen, tlrl-nacga23) was added to a final concentration of 5 ug/mL, and the cells were cultured at 37° C. On the following day, QUANTI-Luc™ (Secreted luciferase detection medium, Invivogen, rep-qlc) was added to the culture solution and the activity of IRF pathway was measured using a microplate reader. The inhibition ratio at each concentration was determined, where the activity of IRF pathway with no addition of the test compound or 2′3′-cGAMP was defined as 100% inhibition and the activity of IRF pathway with no addition of the test compound and with addition of 2′3′-cGAMP was defined as 0% inhibition. The IC50 value was calculated by sigmoid […] model non-linear regression analysis.

The term IC50 denotes the concentration needed to halve the response being measured. Take `O=C(O)c1ccc2c(c1)N(C(=O)C#Cc1ccc(-c3ccccc3)c(C(F)(F)F)c1)CC2` [Example 92, 1-{3-[2-(trifluoromethyl)[1,1′-biphenyl]-4-yl]prop-2-ynoyl}-2,3-dihydro-1H-indole-6-carboxylic acid]: the IC50 was determined as 767 nM. `O=C(C#Cc1ccc(-c2ccccc2OC(F)(F)F)c(C(F)(F)F)c1)N1CC(O)C1` [Example 77]: the IC50 came to 91 nM. In the case of `CN(CCO)C(=O)C#Cc1ccc(-c2ccccc2OC(F)(F)F)c(C(F)(F)F)c1` [Example 76], the IC50 was 76 nM. Consider `O=C(C#Cc1ccc(-c2ccc(OC(F)F)cc2)c(C(F)(F)F)c1)N1C[C@@H](O)[C@@H](O)C1` [Example 79], for which the half-maximal inhibitory concentration (IC50) came out at 185 nM. Consider `O=C(C#Cc1ccc(-c2cccc(OC(F)F)c2)c(C(F)(F)F)c1)N1C[C@@H](O)[C@H](O)C1` [Example 65], for which the IC50 worked out at 340 nM. For `CS(=O)(=O)NCCNC(=O)C#Cc1ccc(-c2ccccc2)c(C(F)(F)F)c1` [Example 31], the IC50 is 115 nM. The result for `CN1CCN(C(=O)C#Cc2ccc(-c3ccncc3)cc2)CC1` [Example 88, 1-(4-methylpiperazin-1-yl)-3-[4-(pyridin-4-yl)phenyl]prop-2-yn-1-one] reads 5550 nM; that for `O=C(C#Cc1ccc(-c2ccc(Cl)cc2)c(C(F)(F)F)c1)N1C[C@@H](O)[C@@H](O)C1` [Example 84], 435 nM; that for `O=C(C#Cc1ccc(-c2ccccc2C(F)(F)F)nn1)N1C[C@@H](O)[C@@H](O)C1` [Example 118], 838 nM. For `O=C(C#Cc1ccc(-c2ccccc2)c(C(F)(F)F)c1)Nc1cccc(C(=O)O)c1` [Example 90, 3-({3-[2-(trifluoromethyl)[1,1′-biphenyl]-4-yl]prop-2-ynoyl}amino)benzoic acid], the IC50 amounted to 471 nM. On to `O=C(C#Cc1ccc(-c2ccccc2C(F)(F)F)c2ncccc12)N1C[C@@H](O)[C@@H](O)C1` [Example 117], for which the IC50 turned out to be 2830 nM. In the case of `CN(Cc1cc(C#CC(=O)N2C[C@@H](O)[C@@H](O)C2)ccc1-c1ccccc1C(F)(F)F)C1CC1` [Example 123], the IC50 was 143 nM.

Regarding `COC1CCN(Cc2cc(C#CC(=O)NC[C@H](O)CO)ccc2-c2ccccc2)CC1` [Example 98], the IC50 came out at 2570 nM.

For `CS(=O)(=O)NCc1cc(C#CC(=O)N2C[C@@H](O)[C@@H](O)C2)ccc1-c1ccccc1C(F)(F)F` [Example 124], the IC50 is 2000 nM. As for `O=C(C#Cc1ccc(C2=CCOCC2)c(C(F)(F)F)c1)N1C[C@@H](O)[C@@H](O)C1` [Example 18], the IC50 is 1410 nM. Consider `NC(=O)[C@H]1CCN(C(=O)C#Cc2ccc(-c3ccccc3)c(C(F)(F)F)c2)C1` [Example 27], for which the IC50 was found to be 216 nM. Consider `O=C(C#Cc1ccc(-c2ccccc2OC(F)(F)F)c(C(F)(F)F)c1)N[C@@H]1COC[C@H]1O` [Example 68], for which the IC50 stood at 64 nM. As to `O=C(C#Cc1ccc(-c2cccc(OC(F)F)c2)c(C(F)(F)F)c1)N[C@H]1COC[C@H]1O` [Example 82], the IC50 worked out at 239 nM. Take `CN(C)c1cc(C#CC(=O)N2C[C@@H](O)[C@@H](O)C2)ccc1-c1ccccc1C(F)(F)F` [Example 110]: the IC50 amounted to 1210 nM. For the compound `O=C(C#Cc1ccc(-c2ccccc2C(F)(F)F)c(CO)c1)N1C[C@@H](O)[C@@H](O)C1` [Example 133, 1-[(3R,4S)-3,4-dihydroxypyrrolidin-1-yl]-3-[2-(hydroxymethyl)-2′-(trifluoromethyl)[1,1′-biphenyl]-4-yl]prop-2-yn-1-one], the IC50 is 731 nM. Take `O=C(C#Cc1ccc(-c2ccccc2)c(C(F)(F)F)c1)N1CC(O)C1` [Example 42]: the IC50 was 158 nM. Consider `CN1CCN(C(=O)C#Cc2ccccc2-c2ccccc2)CC1` [Example 1, 3-([1,1′-biphenyl]-2-yl)-1-(4-methylpiperazin-1-yl)prop-2-yn-1-one], for which the 50% inhibitory concentration (IC50) was found to be 13400 nM. To `CN1CCN(C(=O)C#Cc2ccc(-c3ccccc3)nc2)CC1` [Example 5] belongs 950 nM. `O=C(C#Cc1ccc(-c2ccccc2)c(C(F)(F)F)c1)N1CCSCC1` [Example 22]: the IC50 is 210 nM. Consider `O=C(C#Cc1ccc(-c2cccc(OC(F)F)c2)c(C(F)(F)F)c1)N1C[C@H](O)[C@@H](O)C1` [Example 56], for which the IC50 is 256 nM.

As to `O=C(C#Cc1ccc(-c2ccccc2)c(C(F)(F)F)c1)N1CCN(C2CC2)CC1` [Example 13], the IC50 came to 1540 nM.

Take `CN1CCN(C(=O)C#Cc2ccc(-n3cccn3)cc2)CC1` [Example 8]: the IC50 came out at 7750 nM.

Turning to `NS(=O)(=O)CCNC(=O)C#Cc1ccc(-c2ccccc2)c(C(F)(F)F)c1` [Example 30], the IC50 worked out at 159 nM.

With `O=C(C#Cc1ccc(-c2ccc(OC(F)F)cc2)c(C(F)(F)F)c1)N[C@@H]1COC[C@@H]1O` [Example 83], the IC50 is 430 nM. Consider `O=C(C#Cc1ccc(-c2ccccc2OC(F)(F)F)c(C(F)(F)F)c1)N1CC(O)(CO)C1` [Example 78], for which the IC50 worked out at 51 nM.

With `O=C(C#Cc1cn(-c2ccc(F)cc2)c(C(F)(F)F)n1)NC[C@H](O)CO` [Example 115], the IC50 was 4940 nM. For `N#Cc1cc(C#CC(=O)N2C[C@@H](O)[C@@H](O)C2)ccc1-c1ccccc1` [Example 120], the IC50 worked out at 324 nM. For `O=C(C#Cc1ccc(-c2ccccc2)c(C(F)(F)F)c1)N[C@@H]1CCNC1=O` [Example 11], the IC50 is 146 nM. To `O=C(C#Cc1ccc(-c2ccc(OC(F)(F)F)cc2)c(C(F)(F)F)c1)NC[C@H](O)CO` [Example 41] belongs 792 nM; to `O=C(O)C1CCN(C(=O)C#Cc2ccc(-c3ccccc3)c(C(F)(F)F)c2)C1` (stereo not drawn) [Example 94], 11800 nM; to `O=C(C#Cc1ccc(-c2ccccc2)c(C(F)(F)F)c1)N[C@@H]1C[C@@H](O)[C@@H](O)C1` [Example 107], 489 nM.

For `CS(=O)(=O)NCCCN(CCO)C(=O)C#Cc1ccc(-c2ccccc2)c(C(F)(F)F)c1` [Example 130, N-(2-hydroxyethyl)-N-{3-[(methanesulfonyl)amino]propyl}-3-[2-(trifluoromethyl)[1,1′-biphenyl]-4-yl]prop-2-ynamide], the IC50 came to 427 nM. Turning to `CN1CCN(C(=O)C#Cc2cnn(-c3ccccc3)c2C(F)(F)F)CC1` [Example 6], the IC50 came out at 4820 nM. For `O=C(C#Cc1ccc(-c2ccc(OC(F)(F)F)cc2)c(C(F)(F)F)c1)NC[C@@H](O)CO` [Example 40], the IC50 worked out at 422 nM. As for `O=C(C#Cc1cnc(-c2ccccc2)c(C(F)(F)F)c1)N1C[C@@H](O)[C@@H](O)C1` [Example 47, 1-[(3R,4S)-3,4-dihydroxypyrrolidin-1-yl]-3-[6-phenyl-5-(trifluoromethyl)pyridin-3-yl]prop-2-yn-1-one], the IC50 amounted to 277 nM. Take `O=C(C#Cc1ccc(-c2ccccc2)c(C(F)(F)F)c1)N[C@H]1CCNC1=O` [Example 12]: the IC50 worked out at 385 nM.

Regarding `O=C(C#Cc1ccc(-c2ccccc2)c(C(F)(F)F)c1)N[C@@H]1COC[C@H]1O` [Example 17], the IC50 stood at 233 nM. On to `O=C(C#Cc1ccc(-c2ccccc2)c(C(F)(F)F)c1)N1CCS(=O)(=O)CC1CO` (racemic) [Example 128, rac-(3R)-3-(hydroxymethyl)-4-{3-[2-(trifluoromethyl)[1,1′-biphenyl]-4-yl]prop-2-ynoyl}-1λ^6-thiomorpholine-1,1-dione], for which the IC50 came out at 70 nM. `CN1CC2(C1)CN(C(=O)C#Cc1ccc(-c3ccccc3)cc1)C2` [Example 102]: the half-inhibitory concentration (IC50) came to 842 nM. With `O=C(C#Cc1ccc(-c2ccc(OC(F)F)cc2)c(C(F)(F)F)c1)N[C@H]1COC[C@@H]1O` [Example 62], the IC50 amounted to 594 nM. For the compound `O=C(C#Cc1ccc(-c2ccccn2)cc1)N(CCO)c1ccccc1` [Example 87, N-(2-hydroxyethyl)-N-phenyl-3-[4-(pyridin-2-yl)phenyl]prop-2-ynamide], the IC50 turned out to be 1610 nM. `CS(=N)(=O)CCNC(=O)C#Cc1ccc(-c2ccccc2)c(C(F)(F)F)c1` (stereo not drawn) [Example 125]: the IC50 amounted to 322 nM. The result for `N[C@@H]1CCN(C(=O)C#Cc2ccc(-c3ccccc3)c(C(F)(F)F)c2)C1` [Example 101] reads 190 nM; that for `O=C(C#Cc1ccc(-c2ccccc2)c(C(F)(F)F)c1)N1CC[C@H](O)C1` [Example 103], 402 nM; that for `O=C(C#Cc1cnn(-c2ccc(F)cc2)c1C(F)(F)F)N1C[C@@H](O)[C@@H](O)C1` [Example 86], 8040 nM. For `CN1CCN(C(=O)C#Cc2ccc(-c3ccccc3)c(C(F)(F)F)c2)CC1` [Example 3], the IC50 worked out at 155 nM. `O=C(C#Cc1ccc(-c2ccccc2)c(C(F)(F)F)c1)N1CCS(=O)(=O)CC1` [Example 38]: the IC50 stood at 88 nM. In the case of `O=C(C#Cc1ccc(-c2cccnc2)cc1)N(CCO)c1ccccc1` [Example 89], the IC50 is 1690 nM. `O=C(C#Cc1ccc(-c2ccccc2)c(C(F)(F)F)c1)N(CCO)C1CCOCC1` [Example 51]: the IC50 was 184 nM. The result for `CC(C)(C)n1cc(-c2ccc(C#CC(=O)N3C[C@@H](O)[C@@H](O)C3)cc2C(F)(F)F)cn1` [Example 105] reads 620 nM.

Take `O=C(C#Cc1ccc(-c2ccccc2OC(F)(F)F)c(C(F)(F)F)c1)N1C[C@H](O)[C@@H](O)C1` [Example 70]: the IC50 worked out at 35 nM. To `O=C(C#Cc1ccc(-c2cccc(OC(F)F)c2)c(C(F)(F)F)c1)N[C@@H]1COC[C@H]1O` [Example 58] belongs 441 nM.
